{"source": "patent US20230172957A1", "about": "“USE OF ASTRAGALUS MEDICINAL COMPOSITION FOR PREPARING DRUG FOR ENHANCING CANCER THERAPY” (PHYTOHEALTH CORPORATION, priority 2020, published 2023)", "key": {"[1]": {"system": "OVCAR cells", "assay": "Cell viability of ovarian cancer cell line measured by MTS (poisonous dose test and chemotherapeutic synergism)", "format": "cell-based", "description": "(1) Poisonous dose test (the chemotherapy drug dose for inhibiting the cell growth and leaving 60˜70% of growth capability is selected for subsequent test). (2) The cells are inoculated in 96-well plate and cultured for 24 hours. (3) Test drugs at different concentrations are added in, the test concentrations of the r-APS are 0, 2 and 4 mg/ml, the test concentrations of the astragalus pharmaceutical composition comprising the r-APS and the mannose (r-APS+mannose) are 0, 5 and 10 mg/ml. (4) The dose with a poisoning effect on 35-40% of individual cells is selected as chemotherapy drug dose. (5) The cell viability is tested in 48 and 72 hours respectively after addition. (6) Experiment on chemotherapeutic synergism of the r-APS and the astragalus pharmaceutical composition comprising the r-APS and the mannose (r-APS+mannose). (7) The cells are inoculated in 96-well plate and cultured for 24 hours. (8) The r-APS or the astragalus pharmaceutical composition comprising the r-APS and the mannose (r-APS+mannose) in combination with chemotherapy drug are cultured for 48 hours, the dose of the r-APS and the astragalus pharmaceutical composition comprising the r-APS and the mannose (r-APS+mannose) is three poisonous doses for test, the cell viability is measured by MTS in 48 hours."}, "[2]": {"system": "HCT116 cells", "assay": "Cell viability of colorectal cancer cells measured by MTS (poisonous dose test and chemotherapeutic synergism)", "format": "cell-based", "description": "(1) First of all, poisonous dose test (the chemotherapy drug dose for inhibiting the cell growth and leaving 60˜70% of growth capability is selected for subsequent test) (2) The cells are inoculated in 96-well plate and cultured for 24 hours. (3) Test drugs at different concentrations are added in, the test concentrations of the r-APS are 0, 2 and 4 mg/ml, the test concentrations of the astragalus pharmaceutical composition comprising the r-APS and the mannose (r-APS+mannose) are 0, 5 and 10 mg/ml. (4) The dose with a poisoning effect on 35˜40% of individual cells is selected as chemotherapy drug dose. (5) The cell viability is tested in 48 and 72 hours respectively after addition. (6) Experiment on chemotherapeutic synergism of the r-APS and the astragalus pharmaceutical composition comprising the r-APS and the mannose (r-APS+mannose): (7) The cells are inoculated in 96-well plate and cultured for 24 hours. (8) The r-APS or the astragalus pharmaceutical composition comprising the r-APS and the mannose (r-APS+mannose) in combination with chemotherapy drug are cultured for 48 hours, the doses of the r-APS and the astragalus pharmaceutical composition comprising the r-APS and the mannose (r-APS+mannose) are selected four poisonous doses for test, and then the cell viability is measured by MTS in 48 hours."}, "[3]": {"conditions": "Olaparib 0.2M, poisonous dose test"}, "[4]": {"conditions": "Olaparib 0.4M, poisonous dose test"}, "[5]": {"conditions": "Olaparib 0.6M, poisonous dose test"}, "[6]": {"conditions": "Olaparib 0.8M, poisonous dose test"}, "[7]": {"conditions": "Olaparib 1M, poisonous dose test"}, "[8]": {"conditions": "Olaparib alone (0 mg/ml test drug), 48 hours"}, "[9]": {"conditions": "Regorafenib 0.01 mM alone (0 mg/ml test drug), HCT116, 48 hours"}, "[10]": {"conditions": "Regorafenib 0.01 mM, HCT116, poisonous dose test"}}, "note": "Where “and” joins values, the source holds several entries; their conditions need not be identical. Identical values can stand only once.", "data": [{"smiles": "O=C(c1cc(Cc2n[nH]c(=O)c3ccccc23)ccc1F)N1CCN(C(=O)C2CC2)CC1", "note": "[Olaparib]", "values": [{"measurement": "Cell viability (%)", "setting": "[1]; [3]", "result": 100.55, "unit": "%"}, {"measurement": "Mean value (MEAN) of three repeats (raw reading)", "setting": "[1]; [3]", "result": 0.984}, {"measurement": "Cell viability (%)", "setting": "[1]; [4]", "result": 90.32, "unit": "%"}, {"measurement": "Mean value (MEAN) of three repeats (raw reading)", "setting": "[1]; [4]", "result": 0.884}, {"measurement": "Cell viability (%)", "setting": "[1]; [5]", "result": 75.13, "unit": "%"}, {"measurement": "Mean value (MEAN) of three repeats (raw reading)", "setting": "[1]; [5]", "result": 0.735}, {"measurement": "cell viability of cancer cells poisoned to", "setting": "[1]; Olaparib 0.7M, poisonous dose test", "result": 60, "unit": "%"}, {"measurement": "Cell viability (%)", "setting": "[1]; [6]", "result": 48.72, "unit": "%"}, {"measurement": "Mean value (MEAN) of three repeats (raw reading)", "setting": "[1]; [6]", "result": 0.477}, {"measurement": "Cell viability (%)", "setting": "[1]; [7]", "result": 18.74, "unit": "%"}, {"measurement": "Mean value (MEAN) of three repeats (raw reading)", "setting": "[1]; [7]", "result": 0.183}, {"measurement": "Cell viability (%)", "setting": "[1]; [8]", "result": "60.189% and 61.4%"}, {"measurement": "Mean value (MEAN) of three repeats (raw reading)", "setting": "[1]; [8]", "result": "0.595 and 0.605"}]}, {"smiles": "CNC(=O)c1cc(Oc2ccc(NC(=O)Nc3ccc(Cl)c(C(F)(F)F)c3)c(F)c2)ccn1", "note": "[Regorafenib]", "values": [{"measurement": "viability at 0.01 µM", "setting": "[2]; Homo sapiens, HCT-116, Regorafenib 0.00001 mM, HCT116, poisonous dose test", "result": 110, "unit": "%"}, {"measurement": "viability at 0.1 µM", "setting": "[2]; Homo sapiens, HCT-116, Regorafenib 0.0001 mM, HCT116, poisonous dose test", "result": 107, "unit": "%"}, {"measurement": "viability at 1 µM", "setting": "[2]; Homo sapiens, HCT-116, Regorafenib 0.001 mM, HCT116, poisonous dose test", "result": 94.4, "unit": "%"}, {"measurement": "viability at 10 µM", "setting": "[2]; Homo sapiens, HCT-116, Regorafenib 0.01 mM, HCT116, poisonous dose test", "result": 60, "unit": "%"}, {"measurement": "viability at 100 µM", "setting": "[2]; Homo sapiens, HCT-116, Regorafenib 0.1 mM, HCT116, poisonous dose test", "result": 9.2, "unit": "%"}, {"measurement": "Mean value (MEAN) of three repeats (raw reading)", "setting": "[2]; Regorafenib 0.00001 mM, HCT116, poisonous dose test", "result": 1.103}, {"measurement": "Mean value (MEAN) of three repeats (raw reading)", "setting": "[2]; Regorafenib 0.0001 mM, HCT116, poisonous dose test", "result": 1.075}, {"measurement": "Mean value (MEAN) of three repeats (raw reading)", "setting": "[2]; Regorafenib 0.001 mM, HCT116, poisonous dose test", "result": 0.950}, {"measurement": "Cell viability (%)", "setting": "[2]; [9]", "result": "71.4% and 71.43%"}, {"measurement": "Mean value (MEAN) of three repeats (raw reading)", "setting": "[2]; [9]", "result": 0.641}, {"measurement": "Cell viability (%)", "setting": "[2]; [10]", "result": 63.5, "unit": "%"}, {"measurement": "Mean value (MEAN) of three repeats (raw reading)", "setting": "[2]; [10]", "result": 0.639}, {"measurement": "Mean value (MEAN) of three repeats (raw reading)", "setting": "[2]; Regorafenib 0.1 mM, HCT116, poisonous dose test", "result": 0.093}]}]}
